Results: patent publication US7592328B2, “Natural cyclodextrin complexes” (Pedipharm Oy, priority 2002, dated 2009)

Experiments:
[1] = dissolution of CBD from a gelatine capsule in 2% RM-β-CD dissolution media; assay type: physicochemical; conditions: gelatine capsule with 1.0 mg pure CBD and 99 mg lactose, pH 6.6, n=6
[2] = 40% solution of HP-β-CD; cited from earlier work
[3] = oral administration, depending on the drug vehicle employed; cited from earlier work

Structure (SMILES) | time in which CBD is not fully dissolved [1] | THC solution concentration obtained [2] | bioavailability [3]
C=C(C)[C@@H]1CCC(C)=C[C@H]1c1c(O)cc(CCCCC)cc1O [CBD, cannabidiol] | > 3 h | – | –
CCCCCc1cc(O)c2c(c1)OC(C)(C)[C@@H]1CCC(C)=C[C@@H]21 [THC, Δ^9-tetrahydrocannabinol] | – | 1 mg/mL | 6-20%
